From patent publication US20230365546A1, “5-SUBSTITUTED INDOLE 3-AMIDE DERIVATIVES, PREPARATION METHOD AND USE THEREOF” (ORIGIANT PHARMACEUTICAL CO., LTD, priority 2020, published 2023)

How the values were obtained:
Assay in all cases: Kinase Profiler 10 μM panel
[1] = molecular target: ACK1(h) (Homo sapiens (Human), UniProt Q07912)
Experimental: (§1) In vitro kinase assays were conducted using Kinase Profiler services provided by Eurofins. The experimental method was as follows: the small molecule compound to be tested (0.001-10 μM), the protein kinase to be tested were incubated with a buffer containing substrate, 10 mM magnesium acetate, and [γ-^33P-ATP], the reaction was started by adding Mg\TPmix, after incubation for a period of time at room temperature, a 3% phosphate solution was added to the buffer to stop the reaction. Subsequently, 10 μL of the reaction mixture was quantitatively pipetted onto P30 filter paper, which was washed three times with 75 mM phosphate solution and then once with methanol. The P30 filter paper was air-dried and scintillation fluid was added for scintillation counting.

[2] = molecular target: Pim-2(h) (Homo sapiens (Human), UniProt Q9P1W9)
Experimental: as §1

[3] = molecular target: ASK1(h) (Homo sapiens (Human), UniProt Q99683)
Experimental: as §1

[4] = molecular target: PKAcβ(h) (Homo sapiens (Human), UniProt P22694)
Experimental: as §1

[5] = molecular target: ICK(h) (Homo sapiens (Human), UniProt Q9UPZ9)
Experimental: as §1

[6] = molecular target: B-Raf(V599E)(h) (Homo sapiens (Human), UniProt P15056, V600E)
Experimental: as §1

[7] = molecular target: IRAK1(h) (Homo sapiens (Human), UniProt P51617)
Experimental: as §1

[8] = molecular target: IRR(h) (Homo sapiens (Human), UniProt P14616)
Experimental: as §1

[9] = molecular target: PKR(h) (Homo sapiens (Human), UniProt P19525)
Chain of PKR(h) (P19525 whole entry): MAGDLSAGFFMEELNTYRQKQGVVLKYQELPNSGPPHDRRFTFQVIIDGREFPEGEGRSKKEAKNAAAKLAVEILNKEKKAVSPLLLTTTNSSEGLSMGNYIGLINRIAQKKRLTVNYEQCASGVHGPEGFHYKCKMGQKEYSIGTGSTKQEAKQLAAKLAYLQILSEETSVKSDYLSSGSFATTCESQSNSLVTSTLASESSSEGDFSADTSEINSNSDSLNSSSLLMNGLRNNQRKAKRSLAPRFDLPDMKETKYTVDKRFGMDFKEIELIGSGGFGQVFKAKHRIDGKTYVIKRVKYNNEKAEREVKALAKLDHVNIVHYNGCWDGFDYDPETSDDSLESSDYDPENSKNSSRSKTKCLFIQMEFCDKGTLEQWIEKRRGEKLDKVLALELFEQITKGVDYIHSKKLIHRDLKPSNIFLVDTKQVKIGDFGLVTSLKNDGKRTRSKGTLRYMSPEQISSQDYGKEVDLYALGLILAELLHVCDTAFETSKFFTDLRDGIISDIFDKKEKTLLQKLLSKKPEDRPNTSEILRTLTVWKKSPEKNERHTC
Experimental: as §1

[10] = molecular target: Plk1(h) (Homo sapiens (Human), UniProt P53350)
Experimental: as §1

[11] = molecular target: Plk3(h) (Homo sapiens (Human), UniProt Q9H4B4)
Chain of Plk3(h) (Q9H4B4 whole entry): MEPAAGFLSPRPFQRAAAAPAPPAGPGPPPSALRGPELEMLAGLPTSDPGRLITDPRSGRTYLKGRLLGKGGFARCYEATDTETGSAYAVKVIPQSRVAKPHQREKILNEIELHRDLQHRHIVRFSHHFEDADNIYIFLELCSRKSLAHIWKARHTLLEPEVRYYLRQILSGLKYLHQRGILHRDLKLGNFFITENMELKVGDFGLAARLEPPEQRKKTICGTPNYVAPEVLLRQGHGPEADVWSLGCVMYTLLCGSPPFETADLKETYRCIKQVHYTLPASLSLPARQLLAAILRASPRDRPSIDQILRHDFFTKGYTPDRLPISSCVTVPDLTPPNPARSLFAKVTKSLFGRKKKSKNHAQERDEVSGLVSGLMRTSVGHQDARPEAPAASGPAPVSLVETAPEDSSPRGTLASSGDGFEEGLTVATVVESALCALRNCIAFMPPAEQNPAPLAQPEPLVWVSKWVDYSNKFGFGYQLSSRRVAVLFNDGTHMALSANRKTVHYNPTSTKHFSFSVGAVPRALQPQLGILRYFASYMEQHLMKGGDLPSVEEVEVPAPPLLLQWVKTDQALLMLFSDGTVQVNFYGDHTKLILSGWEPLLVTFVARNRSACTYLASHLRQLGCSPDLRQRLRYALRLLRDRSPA
Experimental: as §1

[12] = molecular target: PRK2(h) (Homo sapiens (Human), UniProt Q16513)
Experimental: as §1

[13] = molecular target: PTK5(h) (Homo sapiens (Human), UniProt P42685)
Chain of PTK5(h) (P42685 whole entry): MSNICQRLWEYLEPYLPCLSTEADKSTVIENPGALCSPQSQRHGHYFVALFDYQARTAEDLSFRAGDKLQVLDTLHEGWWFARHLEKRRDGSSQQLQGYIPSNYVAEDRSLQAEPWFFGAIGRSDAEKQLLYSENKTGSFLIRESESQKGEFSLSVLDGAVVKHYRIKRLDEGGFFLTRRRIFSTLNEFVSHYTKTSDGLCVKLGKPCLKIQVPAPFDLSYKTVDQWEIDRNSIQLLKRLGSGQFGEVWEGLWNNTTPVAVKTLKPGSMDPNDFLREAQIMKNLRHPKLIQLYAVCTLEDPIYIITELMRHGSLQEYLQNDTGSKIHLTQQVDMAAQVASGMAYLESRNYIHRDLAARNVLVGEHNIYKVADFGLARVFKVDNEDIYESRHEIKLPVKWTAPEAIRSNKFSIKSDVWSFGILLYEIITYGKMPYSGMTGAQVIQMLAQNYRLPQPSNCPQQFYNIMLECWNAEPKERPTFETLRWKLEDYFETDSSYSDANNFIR
Experimental: as §1

[14] = molecular target: ROCK-II(r) (Rattus norvegicus (Rat), UniProt Q62868)
Experimental: as §1

[15] = molecular target: MAPK2(h) (Homo sapiens (Human), UniProt P28482)
Experimental: as §1

[16] = molecular target: Rsk3(h) (Homo sapiens (Human), UniProt Q15349)
Experimental: as §1

[17] = molecular target: MEK2(h) (Homo sapiens (Human), UniProt P36507)
Experimental: as §1

[18] = molecular target: SGK2(h) (Homo sapiens (Human), UniProt Q9HBY8)
Experimental: as §1

[19] = molecular target: CK1δ(h) (Homo sapiens (Human), UniProt P48730)
Experimental: as §1

[20] = molecular target: cKit(V560G)(h) (Homo sapiens (Human), UniProt P10721, V560G)
Experimental: as §1

[21] = molecular target: DAPK2(h) (Homo sapiens (Human), UniProt Q9UIK4)
Experimental: as §1

[22] = molecular target: Tec(h) activated (Homo sapiens (Human), UniProt P42680)
Chain of Tec(h) activated (P42680 whole entry): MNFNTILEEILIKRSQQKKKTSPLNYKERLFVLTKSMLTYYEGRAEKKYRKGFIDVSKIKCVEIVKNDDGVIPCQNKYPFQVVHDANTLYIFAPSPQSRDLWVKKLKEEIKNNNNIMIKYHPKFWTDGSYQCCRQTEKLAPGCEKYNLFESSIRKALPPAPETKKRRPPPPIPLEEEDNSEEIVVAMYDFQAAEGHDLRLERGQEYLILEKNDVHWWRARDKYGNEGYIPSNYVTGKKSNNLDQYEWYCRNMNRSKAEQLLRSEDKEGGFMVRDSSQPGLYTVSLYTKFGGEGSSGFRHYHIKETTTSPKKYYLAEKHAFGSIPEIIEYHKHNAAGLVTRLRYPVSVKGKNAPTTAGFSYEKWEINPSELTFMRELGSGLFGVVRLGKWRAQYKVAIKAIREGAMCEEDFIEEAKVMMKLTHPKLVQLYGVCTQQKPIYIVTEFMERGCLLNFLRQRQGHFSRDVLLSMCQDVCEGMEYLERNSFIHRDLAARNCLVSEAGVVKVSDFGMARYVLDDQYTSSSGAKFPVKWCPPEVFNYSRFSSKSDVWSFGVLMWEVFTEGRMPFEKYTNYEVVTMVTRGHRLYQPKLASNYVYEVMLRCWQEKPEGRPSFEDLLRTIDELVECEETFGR
Experimental: as §1

[23] = molecular target: mTOR/FKBP12(h) (Homo sapiens (Human), UniProt P42345)
Experimental: as §1

[24] = molecular target: DNA-PK(h) (Homo sapiens (Human), UniProt P78527)
Experimental: as §1

[25] = molecular target: Tie2(Y897S)(h) (Homo sapiens (Human), UniProt Q02763, Y897S)
Experimental: as §1

[26] = molecular target: NEK11(h) (Homo sapiens (Human), UniProt Q8NG66)
Experimental: as §1

[27] = molecular target: EGFR(L858R)(h) (Homo sapiens (Human), UniProt P00533, L858R)
Experimental: as §1

[28] = molecular target: PAK3(h) (Homo sapiens (Human), UniProt O75914)
Chain of PAK3(h) (O75914 whole entry): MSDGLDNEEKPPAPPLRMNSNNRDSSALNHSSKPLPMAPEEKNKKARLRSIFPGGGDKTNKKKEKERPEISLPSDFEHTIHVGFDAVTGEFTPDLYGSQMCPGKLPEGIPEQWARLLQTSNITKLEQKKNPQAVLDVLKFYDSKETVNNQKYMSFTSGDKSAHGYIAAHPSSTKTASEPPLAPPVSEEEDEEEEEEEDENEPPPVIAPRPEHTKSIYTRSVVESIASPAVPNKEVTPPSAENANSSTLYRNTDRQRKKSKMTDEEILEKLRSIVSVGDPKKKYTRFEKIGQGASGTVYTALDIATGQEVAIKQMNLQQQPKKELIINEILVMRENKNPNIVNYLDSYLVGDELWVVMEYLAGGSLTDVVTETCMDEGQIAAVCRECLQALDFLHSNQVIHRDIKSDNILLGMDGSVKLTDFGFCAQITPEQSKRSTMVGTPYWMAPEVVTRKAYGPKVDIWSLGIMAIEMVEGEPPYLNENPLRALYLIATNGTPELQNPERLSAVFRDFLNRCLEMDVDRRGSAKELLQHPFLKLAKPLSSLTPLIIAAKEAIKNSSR
Experimental: as §1

[29] = molecular target: Txk(h) (Homo sapiens (Human), UniProt P42681)
Chain of Txk(h) (P42681 whole entry): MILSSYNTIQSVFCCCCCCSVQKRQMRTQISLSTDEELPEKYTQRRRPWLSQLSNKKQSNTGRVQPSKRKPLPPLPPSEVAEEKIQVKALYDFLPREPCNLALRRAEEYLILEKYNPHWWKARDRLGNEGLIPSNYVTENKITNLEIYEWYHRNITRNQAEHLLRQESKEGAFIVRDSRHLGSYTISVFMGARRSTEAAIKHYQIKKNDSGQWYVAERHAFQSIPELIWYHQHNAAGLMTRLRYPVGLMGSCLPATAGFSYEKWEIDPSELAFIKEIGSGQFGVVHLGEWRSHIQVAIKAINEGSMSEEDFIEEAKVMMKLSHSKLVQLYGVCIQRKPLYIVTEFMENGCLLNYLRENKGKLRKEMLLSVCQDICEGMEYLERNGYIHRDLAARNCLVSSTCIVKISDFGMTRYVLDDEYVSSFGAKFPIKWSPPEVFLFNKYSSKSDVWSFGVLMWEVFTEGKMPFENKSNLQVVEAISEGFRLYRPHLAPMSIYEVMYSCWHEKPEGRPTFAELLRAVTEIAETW
Experimental: as §1

[30] = molecular target: VRK1(h) (Homo sapiens (Human), UniProt Q99986)
Chain of VRK1(h) (Q99986 whole entry): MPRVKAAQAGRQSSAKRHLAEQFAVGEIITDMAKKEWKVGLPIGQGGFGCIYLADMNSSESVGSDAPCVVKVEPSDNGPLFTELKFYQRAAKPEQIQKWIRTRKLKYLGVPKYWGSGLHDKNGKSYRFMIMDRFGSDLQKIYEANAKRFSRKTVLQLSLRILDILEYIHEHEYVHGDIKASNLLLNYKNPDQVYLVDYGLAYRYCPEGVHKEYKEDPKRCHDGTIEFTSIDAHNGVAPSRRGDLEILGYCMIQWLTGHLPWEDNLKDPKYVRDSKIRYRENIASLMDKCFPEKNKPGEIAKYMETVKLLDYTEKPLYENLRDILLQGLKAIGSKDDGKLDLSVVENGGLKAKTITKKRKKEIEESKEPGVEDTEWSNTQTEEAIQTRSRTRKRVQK
Experimental: as §1

[31] = molecular target: ErbB2(h) (Homo sapiens (Human), UniProt P04626)
Chain of ErbB2(h) (P04626 23-1255): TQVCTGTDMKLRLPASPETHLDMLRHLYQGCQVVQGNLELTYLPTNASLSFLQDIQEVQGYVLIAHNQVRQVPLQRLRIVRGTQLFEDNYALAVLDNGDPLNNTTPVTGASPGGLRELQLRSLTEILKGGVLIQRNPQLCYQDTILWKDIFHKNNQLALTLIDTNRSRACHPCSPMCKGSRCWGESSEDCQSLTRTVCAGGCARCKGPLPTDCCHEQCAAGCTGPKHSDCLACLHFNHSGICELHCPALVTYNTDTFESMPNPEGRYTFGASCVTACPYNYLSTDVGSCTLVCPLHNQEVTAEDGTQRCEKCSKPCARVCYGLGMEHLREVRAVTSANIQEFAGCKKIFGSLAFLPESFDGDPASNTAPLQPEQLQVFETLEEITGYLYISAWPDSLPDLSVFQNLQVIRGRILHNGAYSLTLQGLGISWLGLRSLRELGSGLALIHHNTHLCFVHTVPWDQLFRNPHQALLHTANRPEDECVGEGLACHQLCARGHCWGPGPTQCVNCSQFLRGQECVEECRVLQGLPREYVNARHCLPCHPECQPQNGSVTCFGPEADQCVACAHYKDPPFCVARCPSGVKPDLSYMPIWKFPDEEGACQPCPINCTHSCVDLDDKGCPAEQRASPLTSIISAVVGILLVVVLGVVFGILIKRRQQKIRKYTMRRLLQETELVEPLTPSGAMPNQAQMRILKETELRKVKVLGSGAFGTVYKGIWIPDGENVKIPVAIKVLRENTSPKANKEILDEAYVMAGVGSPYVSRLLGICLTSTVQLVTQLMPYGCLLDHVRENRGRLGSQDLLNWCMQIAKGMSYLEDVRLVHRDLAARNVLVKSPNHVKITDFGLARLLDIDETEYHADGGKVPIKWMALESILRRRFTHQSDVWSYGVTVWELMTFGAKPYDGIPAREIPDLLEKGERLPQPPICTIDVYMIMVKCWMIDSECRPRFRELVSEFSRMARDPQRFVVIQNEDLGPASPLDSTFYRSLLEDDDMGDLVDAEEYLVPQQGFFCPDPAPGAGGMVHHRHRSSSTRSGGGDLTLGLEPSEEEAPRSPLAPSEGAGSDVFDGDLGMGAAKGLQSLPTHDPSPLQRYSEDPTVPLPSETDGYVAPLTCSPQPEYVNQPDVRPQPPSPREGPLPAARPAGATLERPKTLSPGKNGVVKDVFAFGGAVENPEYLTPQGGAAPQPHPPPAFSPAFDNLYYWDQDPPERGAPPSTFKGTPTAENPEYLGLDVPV
Experimental: as §1

[32] = molecular target: FGFR1(h) (Homo sapiens (Human), UniProt P11362)
Experimental: as §1

[33] = molecular target: Yes(h) (Homo sapiens (Human), UniProt P07947)
Experimental: as §1

[34] = molecular target: FGFR3(h) (Homo sapiens (Human), UniProt P22607)
Experimental: as §1

## C[C@H](NC(=O)c1c[nH]c2ccc(-c3ccc4nc(NC(=O)C5CC5)sc4c3)cc12)c1cccc(F)c1 [Compound 34, (S)-5-(2-(cyclopropanecarboxamido)benzo[d]thiazol-6-yl)-N-(1-(3-fluorophenyl)ethyl)-1H-indole-3-carboxamide]
[1]
  Inhibition ratio: 35%
[2]
  Inhibition ratio: −5%
[3]
  Inhibition ratio: 12%
[4]
  Inhibition ratio: −4%
[5]
  Inhibition ratio: 7%
[6]
  Inhibition ratio: 14%
[7]
  Inhibition ratio: 32%
[8]
  Inhibition ratio: 50%
[9]
  Inhibition ratio: 11%
[10]
  Inhibition ratio: 8%
[11]
  Inhibition ratio: 9%
[12]
  Inhibition ratio: 0%
[13]
  Inhibition ratio: 51%
[14]
  Inhibition ratio: 12%
[15]
  Inhibition ratio: 11%
[16]
  Inhibition ratio: 49%
[17]
  Inhibition ratio: 8%
[18]
  Inhibition ratio: 2%
[19]
  Inhibition ratio: 33%
[20]
  Inhibition ratio: 88%
[21]
  Inhibition ratio: 13%
[22]
  Inhibition ratio: 17%
[23]
  Inhibition ratio: 10%
[24]
  Inhibition ratio: 24%
[25]
  Inhibition ratio: 88%
[26]
  Inhibition ratio: 35%
[27]
  Inhibition ratio: 65%
[28]
  Inhibition ratio: −1%
[29]
  Inhibition ratio: 47%
[30]
  Inhibition ratio: 2%
[31]
  Inhibition ratio: 10%
[32]
  Inhibition ratio: 72%
[33]
  Inhibition ratio: 85%
[34]
  Inhibition ratio: 35%

## C[C@H](NC(=O)c1cn(C)c2ccc(-c3ccn4nc(NC(=O)C5CC5)nc4c3)cc12)c1cccc(F)c1 [Compound 94, (S)-5-(2-(cyclopropanecarboxamido)-[1,2,4]triazolo[1,5-a]pyridin-7-yl)-N-(1-(3-fluorophenyl)ethyl)-1-methyl-1H-indole-3-carboxamide]
[1]
  Inhibition ratio/%: 33%
[2]
  Inhibition ratio/%: −14%
[3]
  Inhibition ratio/%: 38%
[4]
  Inhibition ratio/%: 40%
[5]
  Inhibition ratio/%: 52%
[6]
  Inhibition ratio/%: −10%
[7]
  Inhibition ratio/%: 23%
[8]
  Inhibition ratio/%: 33%
[9]
  Inhibition ratio/%: 19%
[10]
  Inhibition ratio/%: 26%
[11]
  Inhibition ratio/%: 12%
[12]
  Inhibition ratio/%: −4%
[13]
  Inhibition ratio/%: 48%
[14]
  Inhibition ratio/%: 52%
[15]
  Inhibition ratio/%: 40%
[16]
  Inhibition ratio/%: 27%
[17]
  Inhibition ratio/%: 13%
[18]
  Inhibition ratio/%: −18%
[19]
  Inhibition ratio/%: −12%
[20]
  Inhibition ratio/%: 65%
[21]
  Inhibition ratio/%: 3%
[22]
  Inhibition ratio/%: −20%
[23]
  Inhibition ratio/%: 36%
[24]
  Inhibition ratio/%: 47%
[25]
  Inhibition ratio/%: 18%
[26]
  Inhibition ratio/%: 44%
[27]
  Inhibition ratio/%: −5%
[28]
  Inhibition ratio/%: −19%
[29]
  Inhibition ratio/%: −12%
[30]
  Inhibition ratio/%: 46%
[31]
  Inhibition ratio/%: 47%
[32]
  Inhibition ratio/%: 70%
[33]
  Inhibition ratio/%: 29%
[34]
  Inhibition ratio/%: 40%
